According to patent US20170065517A1, “COMPOSITIONS FOR […] AGENTS ACROSS THE ORAL MUCOSA AND METHODS OF USE THEREOF” (PARATEK PHARMACEUTICALS, INC., priority 2004, published 2017):

Experiment: Zolpidem membrane assay (lipid-coated dodecane membrane between donor and acceptor cell)
Type: in vitro ADME
Conditions: zolpidem tartrate solutions
Method: Topics Med. Chem., 1:277-351 (2001). This assay uses a lipid-coated membrane to predict lipid mucosal membrane penetration. The membrane apparatus consists of a dodecane membrane sandwiched between a donor and acceptor cell. The lipid-coated membrane is less porous then the mucous membrane of the oral cavity. Thus, the enhancement seen in the membrane assay is very likely to be magnified in vivo.
Membrane assays were performed using zolpidem tartrate solutions at a pH of 5.8, 6.8, and 7.8. The alkaline pH values of 7.8 were adjusted using freshly prepared 0.01 M sodium bicarbonate/sodium carbonate buffer solution. The acidic pH of 5.8 was achieved using a 0.01 M acetate buffer solution (a mixture of sodium acetate and acetic acid). The neutral pH of 6.8 was achieved by adding 0.01 M acetate solution to the sodium bicarbonate/sodium carbonate buffer solution. Permeation through the membrane was measured by determining the concentration of zolpidem in the acceptor cell and is expressed as Pc (effective permeability in centimeters per second).

## Cc1ccc(-c2nc3ccc(C)cn3c2CC(=O)N(C)C)cc1 [zolpidem]
pH 7.8 relative to pH 5.8
  increase of effective permeability (Pc): 129%
pH 7.8 relative to pH 6.8
  increase of effective permeability (Pc): more than 53%
